Laboratory results reported in article PMC6467890, “A semi-synthetic neolignan derivative from dihydrodieugenol B selectively affects the bioenergetic system of Leishmania infantum and inhibits cell division” (Scientific Reports, 2019).
Like-named read-outs stand apart in the source and are kept apart here.

Columns and labels:
[1] = system: Trypanosoma cruzi parasites; set-up: method as in PMID 28864277; settings: cited from earlier work
[2] = system: Trypanosoma cruzi parasites; settings: cited from earlier work
[3] = system: L. (L.) infantum promastigotes; experiment: Intracellular calcium levels, Fura-2 AM; assay type: cell-based, Leishmania (L.) infantum; settings: 190 µM, 5, 20, 60 and 120 min
Description: Promastigotes (2 × 10^6 parasites/well) were pretreated with 5 µM of Fura-2 AM (Molecular Probes) in PBS 1x, for 40 min at 24 °C in the dark. The parasites were washed and treated with compound 2 (190 µM). The fluorescence was measured at 5, 20, 60 and 120 min, using a fluorimetric microplate reader (FilterMax F5 Multi-Mode, Molecular Devices) with excitation and emission wavelengths of 360 and 500 nm, respectively. Maximum levels of calcium were obtained using 0.5% Triton X-100 and untreated parasites were used as negative control.

[4] = system: L. (L.) infantum promastigotes; experiment: ATP levels, bioluminescence assay; assay type: cell-based, Leishmania (L.) infantum; settings: 190 µM, 1 and 2 h, compared to untreated parasites
Description: Promastigotes (2 × 10^6 parasites/well) were treated with compound 2 (190 µM) in HBSS + Glu for 1 and 2 h at 24 °C. Untreated parasites and treated with CCCP (25 µM) were included as negative and positive controls, respectively. The promastigotes were lysed using 0.5% Triton X-100 and mixed with a standard reaction buffer (ATP Determination Kit, Molecular Probes) containing DTT (1 mM), luciferin (0.5 mM) and firefly luciferase (1.25 µg/mL)[50]. Luminescence intensity was measured using a luminometer (FilterMax F5 Multi-Mode, Molecular Devices) and the amount of ATP was calculated from an ATP standard curve.

[5] = system: L. (L.) infantum promastigotes; experiment: Cell cycle analysis, propidium iodide, flow cytometry; assay type: cell-based, Leishmania (L.) infantum; settings: 24 h; compound 2 190 µM, miltefosine 25 μM
Description: Promastigotes (2 × 10^6 parasites/well) in mid-log phase were incubated with compound 2 (190 µM) in M-199 medium for 24 h at 24 °C. Parasites were washed and fixed in 70% ice-cold ethanol overnight at −20 °C. After a further wash with PBS 1x, the promastigotes were ressuspended in propidium iodide (10 µg/mL, Molecular Probes) and RNase A (20 µg/mL, Molecular Probes) for 30 min in the dark at room temperature. The fluorescence intensity was analyses using Attune NxT flow cytometer (Thermo Fisher Scientific) with excitation filter wavelengths of 488 nm and emission of 574 nm (BL-2)[47]. Maximum change in the cell cycle was obtained in the presence of miltefosine (25 μM) and untreated parasites were used as negative control. Unstained parasites were used to set background fluorescence.

[6] = system: L. (L.) infantum promastigotes; experiment: Mitochondrial membrane electric potential, JC-1, flow cytometry; assay type: cell-based, Leishmania (L.) infantum; settings: 190 µM, 1 and 2 h, compared to untreated parasites
Description: Promastigotes (2 × 10^6 parasites/well) were treated for 1 and 2 h with compound 2 (190 µM) in HBSS + Glu at 24 °C. JC-1 dye (Molecular Probes) was added at a final concentration of 10 μM. The parasites were incubated in the dark for 20 min and washed to eliminate the non-internalized dye. The fluorescence was measure using Attune NxT flow cytometer (Thermo Fisher Scientific) with excitation filter wavelengths of 488 nm and emission of 530 (BL-1) and 574 nm (BL-2). The mitochondrial membrane potential was determined using BL-2/BL-1 ratio[49]. Maximum depolarization was obtained in the presence of CCCP (100 μM) and untreated parasites were used as negative control. Unstained parasites were used to set background fluorescence.

[7] = system: L. (L.) infantum promastigotes; assay type: cell-based, Leishmania (L.) infantum
Description: Promastigotes (2 × 10^6 parasites/well) were incubated in 96-well black polystyrene microplates with 1 µM of Sytox Green (Molecular Probes) in HANKS’ balanced salt solution (Sigma-Aldrich) supplemented with 10 mM D-Glucose (Sigma-Aldrich, HBSS + Glu) at 24 °C for 15 min in the dark[45]. Compound 2 (190 µM) was added and the fluorescence was measured every 20 min for up to 2 h, using a fluorimetric microplate reader (FilterMax F5 Multi-Mode, Molecular Devices) with excitation and emission wavelengths of 485 and 520 nm, respectively. Maximum permeabilization was obtained using 0.5% Triton X-100 and untreated parasites were used as negative control.

[8] = system: L. (L.) infantum promastigotes; experiment: Plasma membrane electric potential, DiSBAC2(3), flow cytometry; assay type: cell-based, Leishmania (L.) infantum
Description: Promastigotes (2 × 10^6 parasites/well) were treated with compound 2 (190 µM) for 1 and 2 h in HBSS + Glu at 24 °C. DiSBAC2(3) (Molecular Probes) were added (0.2 µM) and the parasites were incubated by 5 min[47]. The fluorescence was measure using Attune NxT flow cytometer (Thermo Fisher Scientific) with excitation and emission wavelengths of 488 and 574 nm (BL-2), respectively. Raloxifene (60 μM) was used as positive control and untreated parasites were used as negative control. Unstained parasites were used to set background fluorescence.

[9] = system: L. (L.) infantum promastigotes; experiment: Ultrastructural analysis by transmission electron microscopy; assay type: cell-based, Leishmania (L.) infantum; set-up: dose or concentration left out as unconfirmed; settings: (figure legend), 4 and 6 h
Description: […] Then, the parasites were washed, fixed in 2.5% glutaraldehyde in 0.1 M sodium cacodylate buffer (pH 7.3), postfixed in 1% osmium tetroxide. The parasites were dehydrated with acetone series and embedded in Epon resin. Ultrathin sections were stained with uranyl acetate and lead citrate. The material was analyzed under transmission electron microscopy (JEOL JEM-1011). Untreated parasites were used as negative control.

[10] = system: bone marrow-derived macrophages, uninfected and infected with L. (L.) infantum; experiment: Cytokine level quantification, CBA Mouse Inflammation Kit, flow cytometry; assay type: cell-based, BALB/c mice; settings: 48 h
Description: Bone marrow-derived macrophages (5 × 10^5 cells/well) in 24-well plates were infected with amastigotes at a ratio of 10:1 (amastigotes/macrophage) and kept at 37 °C in a 5% CO2 humidified incubator. Cell were treated with compound 2 (60 to 7.5 µM) for 48 h and the supernatant was collected and cytokine quantification was achieved using the CBA Mouse Inflammation Kit (BD Biosciences) according to the manufacturer’s instructions. The fluorescence was measured using BD LSRFortessa flow cytometer (BD Biosciences) and the data analysis was performed using the software FCAP Array (v.3). LPS (50 μg/mL) was used as positive control and untreated parasites were used as negative control.

[11] = system: L. (L.) infantum promastigotes; experiment: Promastigote viability, MTT colorimetric method; assay type: cell-based, Leishmania (L.) infantum
Description: Promastigotes (1 × 10^6 parasites/well) in 96-well plates were incubated with the four compounds (150 to 1.2 μM) for 96 h at 24 °C. The parasite viability was determined using the MTT colorimetric method. Miltefosine was used as standard, with untreated cells as a negative control. A parallel promastigote activity assay was performed for 2 h with compound 2 (200 to 1.56 μM) for mechanism of action studies. After this period of incubation with compound 2, the parasites were washed twice with M-199 medium and the parasite viability was determined using the MTT colorimetric method for 4 h incubation at 24 °C.

[12] = system: Fibroblast NCTC cells clone 929; experiment: Mammalian cytotoxicity, MTT colorimetric method; assay type: cell-based, murine; settings: up to 200 μM, read-out: CC50 (µM) ± SD NCTC
Description: (§1) Fibroblast NCTC cells clone 929 (6 × 10^4 cells/well) in 96-well plates were incubated with the compounds up to 200 μM in a 5% CO2 humidified incubator at 37 °C. CC50 was determined by the MTT colorimetric method. The selectivity index was determined using the following equation: CC50 against NCTC cells/IC50 against amastigotes

[13] = system: intracellular amastigotes of L. (L.) infantum; experiment: Intracellular amastigotes in peritoneal macrophages, light microscopy counting (infection index); assay type: cell-based, Leishmania (L.) infantum; settings: for IC50: intracellular amastigotes in peritoneal macrophages, 96 h, read-out: IC50 (µM) ± SD Amastigote
Description: Peritoneal macrophages (1 × 10^5 cell/well) in 16-well slide chambers (NUNC) were infected with amastigotes at a ratio of 10:1 (amastigotes/macrophage) and treated with compounds (60 to 10 µM) for 96 h. Stained slides (Giemsa) were counted using light microscopy and IC50 determined by the infection index. Miltefosine was used as standard and untreated cells as a negative control.

[14] = Mammalian cytotoxicity, MTT colorimetric method; assay type: cell-based, murine; settings: mouse, NCTC clone 929 fibroblast cells, up to 200 μM, read-out: CC50 (µM) ± SD NCTC
Description: as §1

[15] = system: L. (L.) amazonensis; set-up: method as in PMID 20064628; settings: cited from earlier work
[16] = system: Leishmania; settings: cited from earlier work
[17] = 96 h at 24 °C, MTT, read-out: IC50 (µM) ± SD Promastigote

In the case of C=CCc1ccc(Oc2cc([C@@H](O)C=C)cc(OC)c2OC)c(OC)c1 [1-[(7S)-hydroxy-8-propenyl]-3-[3′-methoxy-1′-(8′-propenyl)-phenoxy]-4,5-methoxybenzene], the “depolarization of the mitochondrial membrane” value [1] is listed as “induce depolarization of the mitochondrial membrane” and the plasma membrane permeabilization [2] is listed as “plasma membrane permeabilization was verified”.

For “1-Propyl-3-(1′-propyl-3′-methoxyphenoxy)-5-methoxy-4-benzoyloxybenzene [Compound 2]”, the “cytosolic Ca2+ levels (Fura-2 AM)” value [3] was “induced a fast up-regulation of calcium levels, in a time-dependent manner”, the ATP concentration [4] was “dose-dependent decrease of ATP concentration” and the “Proportion of promastigotes in different stages of cell cycle (% ± SD) G0/G1” value [5] was 52.3 ± 1.1 %. For the same compound, the “Proportion of promastigotes in different stages of cell cycle (% ± SD) M/G2” value [5] was 26.4 ± 0.1 %, the “Proportion of promastigotes in different stages of cell cycle (% ± SD) S” value [5] was 13.7 ± 0.7 % and the “Proportion of promastigotes in different stages of cell cycle (% ± SD) Sub G0” value [5] was 3.0 ± 0.2 %. The “mitochondrial membrane electric potential (ΔΨm), JC-1 BL-2/BL-1 ratio” value [6] was “induced a significant (p < 0.0001) depolarization of the mitochondrial membrane potential”, the “plasma membrane permeability (Sytox Green fluorescence)” value [7] was “No changes in the fluorescence levels were observed” and the “plasma membrane electric potential (ΔΨp), DiSBAC2(3) fluorescence” value ([8]; 190 µM, 1 and 2 h, compared with untreated parasites) was “induced a significant (p < 0.0001) depolarization of the potential”. For the same compound, the “ultrastructural alterations (TEM)” value [9] was “intense swelling of the mitochondria with severe loss of cristae and matrix and concentric membranous structures inside this organelle”, the MCP-1 levels ([10]; 60 μM, both macrophage groups) was “decrease this chemokine in both macrophage groups” and the TNF production ([10]; infected macrophages at 30 and 15 μM, uninfected at 60 and 30 μM) was “reduced the TNF production”. The IC50 [11, 17] was 105 ± 9.4 µM, the IC50 ([11]; after 2 h of incubation, used for mechanism of action assays, read-out: second IC50 value against promastigotes) was 190 µM and the CC50 [12] was > 200 µM. The amastigotes eliminated ([13]; at the highest tested concentration) was 100% and the IC50 [13] was 6.1 ± 1.2 µM.

In the case of C=CCc1ccc(Oc2cc(CC=C)cc(OC)c2O)c(OC)c1 [dehydrodieugenol B], the plasma membrane permeabilization [2] is listed as “plasma membrane permeabilization was verified”.

In the case of CCCCCCCCCCCCCCCCOP(=O)([O-])OCC[N+](C)(C)C [Miltefosine, reference compound], the “Proportion of promastigotes in different stages of cell cycle (% ± SD) G0/G1” value [5] is reported as 36.4 ± 1.3 %, the “Proportion of promastigotes in different stages of cell cycle (% ± SD) M/G2” value [5] is reported as 31.4 ± 0.5 % and the “Proportion of promastigotes in different stages of cell cycle (% ± SD) S” value [5] is reported as 12.3 ± 0.1 %. The “Proportion of promastigotes in different stages of cell cycle (% ± SD) Sub G0” value [5] was 10.1 ± 0.2 %, the IC50 ([11]; Leishmania infantum, 96 h at 24 °C, MTT, read-out: IC50 (µM) ± SD Promastigote) was 5.1 ± 0.6 µM and the CC50 [14] was 120 ± 4.2 µM. The IC50 ([13]; Leishmania infantum, Peritoneal macrophage) was 6.5 ± 3 µM and the “SI (Selectivity Index)” value ([13]; ratio between CC50 in NCTC cells and IC50 in intracellular amastigotes) was 18.4.

For eupomatenoid-5, the “depolarization of the mitochondrial membrane” value [15] is listed as “induce depolarization of the mitochondrial membrane”.

For C/C=C/c1cc(OC)c2c(c1)[C@H](C)[C@@H](c1ccc(O)c(OC)c1)O2 [licarin A], the “anti-Leishmania effect and NO upregulation” value [16] is listed as “anti-Leishmania effect without NO upregulation”.

With O=C(c1ccc(OCCN2CCCCC2)cc1)c1c(-c2ccc(O)cc2)sc2cc(O)ccc12 [Raloxifene, reference compound] the “plasma membrane electric potential (ΔΨp), DiSBAC2(3) fluorescence” value ([8]; positive control, 60 μM) was “caused increased levels of fluorescence”.

“1-Propyl-3-(1′-propyl-3′-methoxyphenoxy)-4,5-dimethoxybenzene [Compound 3]” showed an IC50 [11, 17] of 29.6 ± 2.3 µM, a CC50 [12] of 57.7 ± 1.1 µM and an IC50 [13] of 21.7 ± 1.9 µM.
